Results: patent US11608323B2 (SYNGENTA LIMITED, priority 2013, dated 2023)

Assays:
Type in all cases: in vivo
ZEAMX [1] = experiment: Pre-emergence herbicidal activity, glasshouse pot test; settings: rate 1000 g/Ha, evaluated after 13 days, scale 0-5
Method in brief: (§1)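 Seeds sown in standard soil in pots, sprayed one day later (pre-emergence) with aqueous solution from acetone/water (50:50) formulation with 0.5% Tween 20. Glasshouse at 24/16 °C day/night, 14 h light, 65% humidity, watered twice daily. Damage scored after 13 days, 0 (none) to 5 (total).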

AMARE [2] = experiment: as above; settings: rate 1000 g/Ha, evaluated after 13 days, scale 0-5
Method in brief: as §1

SETFA [3] = experiment: as above; settings: rate 1000 g/Ha, evaluated after 13 days, scale 0-5
Method in brief: as §1

ALOMY [4] = experiment: as above; settings: rate 1000 g/Ha, evaluated after 13 days, scale 0-5
Method in brief: as §1

ABUTH [5] = experiment: as above; settings: rate 1000 g/Ha, evaluated after 13 days, scale 0-5
Method in brief: as §1

ECHCG [6] = experiment: as above; settings: rate 1000 g/Ha, evaluated after 13 days, scale 0-5
Method in brief: as §1

ZEAMX [7] = experiment: Post-emergence herbicidal activity, glasshouse pot test; settings: Zea mays; application post-emergence; rate 1000 g/Ha; evaluated after 13 days
Method in brief: (§2)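 Pot-grown plants, 8 days after sowing, were sprayed with compound formulated in acetone/water (50:50) with 0.5% Tween 20. Glasshouse conditions 24/16° C day/night, 14 h light, 65% humidity; damage scored after 13 days on a 0 (none) to 5 (total) scale.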

AMARE [8] = experiment: as above; settings: Amaranthus retroflexus; application post-emergence; rate 1000 g/Ha; evaluated after 13 days
Method in brief: as §2

SETFA [9] = experiment: as above; settings: Setaria faberi; application post-emergence; rate 1000 g/Ha; evaluated after 13 days
Method in brief: as §2

ALOMY [10] = experiment: as above; settings: Alopecurus myosuroides; application post-emergence; rate 1000 g/Ha; evaluated after 13 days
Method in brief: as §2

ABUTH [11] = experiment: as above; settings: Abutilon theophrasti; application post-emergence; rate 1000 g/Ha; evaluated after 13 days
Method in brief: as §2

ECHCG [12] = experiment: as above; settings: Echinochloa crus-galli; application post-emergence; rate 1000 g/Ha; evaluated after 13 days
Method in brief: as §2

Row | SMILES | ZEAMX damage score, application pre-emergence (ZEAMX [1]) | AMARE damage score, application pre-emergence (AMARE [2]) | SETFA damage score, application pre-emergence (SETFA [3]) | ALOMY damage score, application pre-emergence (ALOMY [4]) | ABUTH damage score, application pre-emergence (ABUTH [5]) | ECHCG damage score, application pre-emergence (ECHCG [6]) | Post-emergence herbicidal activity ZEAMX (damage score 0-5) (ZEAMX [7]) | Post-emergence herbicidal activity AMARE (damage score 0-5) (AMARE [8]) | Post-emergence herbicidal activity SETFA (damage score 0-5) (SETFA [9]) | Post-emergence herbicidal activity ALOMY (damage score 0-5) (ALOMY [10]) | Post-emergence herbicidal activity ABUTH (damage score 0-5) (ABUTH [11]) | Post-emergence herbicidal activity ECHCG (damage score 0-5) (ECHCG [12])
1 | CON1C(=O)N(c2cc(C(F)(F)F)ccn2)C(O)C1C (stereo not drawn) [Compound A8, 4-hydroxy-1-methoxy-5-methyl-3-[4-(trifluoromethyl)-2-pyridyl]imidazolidin-2-one] | 3 | 5 | 5 | 4 | 5 | 4 | 4 | 5 | 5 | 5 | 5 | 5
2 | O=C1N(c2cc(C(F)(F)F)ccn2)C(O)[C@H]2CCCN12 (stereo partly drawn) [Compound A47] | 2 | 5 | 4 | 4 | 5 | 5 | 4 | 5 | 5 | 5 | 5 | 5
3 | C=CCOC1C(O)N(c2cc(C(F)(F)F)ccn2)C(=O)N1C (stereo not drawn) [Compound A41] | 1 | 5 | 2 | 1 | 5 | 2 | 2 | 5 | 4 | 4 | 5 | 2
4 | CCO[C@@H]1[C@@H](OC(=O)C(C)Cl)N(c2cc(C(F)(F)F)ccn2)C(=O)N1C (stereo partly drawn) [Compound A101] | 0 | 5 | 4 | 4 | 5 | 4 | 3 | 5 | 5 | 5 | 5 | 5
5 | O=C1N(c2cc(C(F)(F)F)ccn2)C(O)[C@@H]2CCCN12 (stereo partly drawn) [Compound A46] | 3 | 5 | 2 | 4 | 5 | 4 | 3 | 5 | 5 | 5 | 5 | 5
6 | CCOC1C(OC(=O)[C@@H](OC(C)=O)c2ccccc2)N(c2cc(C(F)(F)F)ccn2)C(=O)N1C (stereo partly drawn) [Compound A97] | 3 | 5 | 4 | 4 | 5 | 4 | 3 | 5 | 5 | 5 | 5 | 5
7 | Cc1cnc(N2C(=O)N(C)C(C)C2O)cc1C(F)(F)F (single isomer, unassigned) [Compound A51] | 3 | 5 | 4 | 4 | 5 | 5 | 5 | 5 | 5 | 5 | 5 | 5
8 | Cc1ccc(-c2cnc(N3C(=O)N(C)C(C)C3O)cc2C(F)(F)F)cn1 (stereo not drawn) [Compound A24] | 3 | 5 | 4 | 4 | 5 | 5 | 4 | 5 | 5 | 5 | 5 | 5
9 | CCCOC1C(O)N(c2cc(C(F)(F)F)ccn2)C(=O)N1C (stereo not drawn) [Compound A2] | 1 | 5 | 3 | 2 | 5 | 4 | 2 | 5 | 5 | 4 | 5 | 5
10 | CCC1C(O)N(c2cc(C(F)(F)F)ccn2)C(=O)N1C (stereo not drawn) [Compound A1] | 3 | 5 | 5 | 4 | 5 | 5 | 3 | 5 | 5 | 5 | 5 | 5
